Measurements taken from patent US20140155445A1, “Compounds and Methods for Treating Cancer and Diseases of the Central Nervous System” (Osta Biotechnologies Inc., priority 2007, published 2014).

Experiments:
[1] = tested on: SKMEL 28-V+ cells (human melanoma); test: Melanoma model SKMEL-V+ in SCID mice (combination study); assay type: in vivo; conditions: QC-56 60 mg/kg/ip; Dacarbazine 55 mg/kg
Procedure: SKMEL 28-V+ cells (human melanoma). These cells were originally from the ATCC and then engineered to overexpress VEGF. […] The cells were tested to be free of mycoplasma.
Control groups received the vehicle alone.

SKMEL-V+ cells = test: Melanoma efficacy study of QC-199, SKMEL-V+ cells s.c. in Scid mice; assay type: in vivo, human; conditions: 10 mg/kg i.v. injection, 2 cycles, d1, 3, 5 per cycle
Procedure: BD PharMingen, San Diego, Calif.). Cryostat sections were used for CD31 staining. […] Sections were rehydrated in PBS and then blocked with 5% normal goat serum for 1 h. The sections were then incubated overnight at 4° C. with CD31 antibody diluted 1:25 in 3% BSA-PBS. […] Sections were counterstained with Harris' hematoxylin and mounted. Slides were analyzed by conventional light microscopy and photographed using color slides (Eastman Kodak, Rochester, N.Y.). Balb/c Scid mice, 6 week-old, were obtained from Charles River Laboratories, St. Zotique, PQ, Canada. The mice weighed 18-22 g. The experiments were approved by the Animal Care Committee, McGill University, Montreal. The animals were housed in individual cages (4 per cage) and were fed standard rodent chow and water ad libitum. […] When the tumors become palpable (size of a rice), mice weights were measured with a digital balance accurate to 0.05 g. […] For the infusion, mice were anesthetized using isoflurane-based system ([…] COMPACT NRB, 3975-0800-000). For the infusion, a mini pump (NE-1800, New Era Pump Systems, Inc.) was used to infuse the compound via the tail vein during a 2 h period. […] At experiment termination, mice were anesthetized with isoflurane and sacrificed by cervical dislocation. Tumors were dissected and tumor weights were measured using a digital balance.

[2] = tested on: OVCAR-3 (human ovarian carcinoma); test: Ovarian carcinoma model OVCAR-3 in SCID mice; assay type: in vivo; conditions: QC-56 60 mg/kg/ip; CDDP 3 mg/kg
Text: • Species and strain: […] OVCAR-3 (human ovarian carcinoma). […] Control groups received the vehicle alone.

[3] = tested on: B16-BL6 cells (mouse melanoma); test: B16-BL6 melanoma lung metastasis model; assay type: in vivo; conditions: QC-56 60 mg/kg i.p.; vehicle group 101 nodules
Procedure: • Species and strain: […] B16-BL6 cells (mouse melanoma). B16-BL6 metastatic variant was derived from B16-F10. This cell variant was obtained from Dr. Linda D. Williams, Dept. of Cancer Biology, MD Anderson Cancer Center, Texas, USA. […] Cells were maintained at 37° C. in a humidified atmosphere (5% CO2, 95% air). […] Control groups received the vehicle alone.

| SMILES | inhibition of tumor growth compared to vehicle alone [1] | tumor size on the day of sacrifice [1] | reduction of tumor volume vs vehicle (SKMEL-V+ cells) | tumor size on the day of sacrifice [2] | macroscopic nodules in the lungs (average) [3] |
| --- | --- | --- | --- | --- | --- |
| CN(C)/N=N/c1[nH]cnc1C(N)=O [Dacarbazine, reference compound] | approximately 24% | 1.30±0.23 cm^3 | 21% |  |  |
| N.N.[Cl][Pt][Cl] [cisplatin, reference compound] |  |  |  | 0.63±0.06 cm^3 | 60 |
